Test results: patent US10316017B2, “COT modulators and methods of use thereof” (Gilead Sciences, Inc., priority 2015, dated 2019)

Columns and labels:
[1] = system: TNFα production in LPS-stimulated human monocytes; assay: Cot Monocyte TNFα Cell Based Assay; details: Homo sapiens, Monocyte, LPS-stimulated human monocytes, TNFα TR-FRET; read-out: EC50 TNF
In short: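 Human monocytes (5,000 cells/well) pretreated with compound for 1 hour at 37° C (0.5% DMSO), then stimulated with 50 pg/ml LPS for 4 hours. Total TNFα measured by TR-FRET after overnight antibody incubation at room temp, expressed as percent of control between unstimulated and stimulated cells.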

[2] = molecular target: T1, human Cot catalytic domain (30-397 amino acids) (Homo sapiens, UniProt P41279); assay: High Throughput Cot Biochemical Assay (KinEASE TR-FRET); details: Cot KinEASE TR-FRET, 400 μM ATP; read-out: IC50 HTRF
T1 construct: Purified recombinant human Cot catalytic domain (30-397 amino acids) was purchased from Cama Biosciences; purchased Cama Biosciences (so in the source)
In short: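 Recombinant human Cot catalytic domain (aa 30-397), 5 nM, with 1 μM STK3 peptide and 400 μM ATP in MOPS pH 7.0 buffer with MgOAc, DTT, BSA, NP-40, glycerol, 0.1% DMSO. Phosphorylated XL665-peptide detected by Eu-[…] antibody TR-FRET.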

T1 sequence (P41279 30-397): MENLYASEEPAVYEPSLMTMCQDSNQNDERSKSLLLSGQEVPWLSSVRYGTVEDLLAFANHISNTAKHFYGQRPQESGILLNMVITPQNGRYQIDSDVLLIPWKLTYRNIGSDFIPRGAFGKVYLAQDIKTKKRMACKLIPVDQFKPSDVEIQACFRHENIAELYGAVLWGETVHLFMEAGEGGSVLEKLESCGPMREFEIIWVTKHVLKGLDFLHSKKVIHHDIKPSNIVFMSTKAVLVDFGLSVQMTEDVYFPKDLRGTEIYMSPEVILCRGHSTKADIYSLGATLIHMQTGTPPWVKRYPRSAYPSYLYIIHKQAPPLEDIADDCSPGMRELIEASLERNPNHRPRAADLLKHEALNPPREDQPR

EC50 [1] [nM] | IC50 [2] [nM] | SMILES
8580 | 194 | CCN1CCC(n2cc([C@H](Nc3cc(Cl)c4ncc(C#N)c(Nc5ccc(F)c(Cl)c5)c4c3)c3ccccc3)nn2)CC1 [Example 918, (R)-8-chloro-4-((3-chloro-4-fluorophenyl)amino)-6-(((1-(1-ethylpiperidin-4-yl)-1H-1,2,3-yl)(phenyl)methyl)amino) quinoline-3-carbonitrile]
187 | 10 | [2H][C@](Nc1cc(Cl)c2ncc(C#N)c(N[C@H](CCOC)c3ccccc3)c2c1)(c1ccc(F)cc1)c1cn(C2CC2)nn1 [Example 925, 8-chloro-6-(((1-cyclopropyl-1H-1,2,3-triazol-4-yl)(4-fluorophenyl)methyl-d)amino)-4-(((R)-3-methoxy-1-phenylpropyl)amino)quinoline-3-carbonitrile]
576 | 34 | N#Cc1cnc2c(Cl)cc(N[C@@H](c3ccc(F)cc3)c3cn(C4CC4)nn3)cc2c1NCC12CC(C1)C2 [Example 927, (S)-4-((bicyclo[1.1.1]pentan-1-ylmethyl)amino)-8-chloro-6-(((1-cyclopropyl-1H-1,2,3-triazol-4-fluorophenyl)methyl)amino) quinoline-3-carbonitrile]
443 | 68 | N#Cc1cnc2c(Cl)cc(N[C@H](c3cn(C4CC4)nn3)c3ccccc3Cl)cc2c1NCC12CC(C1)C2 [Example 928, (S)-4-((bicyclo[1.1.1]pentan-1-ylmethyl)amino)-8-chloro-6-(((2-chlorophenyl)(1-cyclopropyl-1H-1,2,3-triazol-4-yl)methyl)amino)quinoline-3-carbonitrile]
98 | 7 | [2H][C@](Nc1cc(Cl)c2ncc(C#N)c(NCC(C)(C)C)c2c1)(c1ccc(Cl)cc1)c1cn(C2CCN(C(C)(C)C)CC2)nn1 [Example 929, (S)-6-(((1-(1-(tert-butyl)piperidin-4-yl)-1H-1,2,3-triazol-4-yl)(4-chlorophenyl)methyl-d)amino)-8-chloro-4-(neopentylamino)quinoline-3-carbonitrile]
66 | 5 | [2H][C@@](Nc1cc(Br)c2ncc(C#N)c(N[C@H](CCC#N)c3ccccc3)c2c1)(c1cn(C2CC2)nn1)c1ccccc1Cl [Example 930, 8-bromo-6-(((S)-(2-chlorophenyl)(1-cyclopropyl-1H-1,2,3-triazol-4-yl)methyl-d)amino)-4-(((R)-3-cyano-1-phenylpropyl)amino) quinoline-3-carbonitrile]
447 | 27 | [2H][C@](Nc1cc(S(C)(=O)=O)c2ncc(C#N)c(NCC(C)(C)C)c2c1)(c1ccc(F)cc1)c1cn(C2CC2)nn1 [Example 931, (S)-6-(((1-cyclopropyl-1H-1,2,3-triazol-4-yl)(4-fluorophenyl)methyl-d)amino)-8-(methylsulfonyl)-4-(neopentylamino)quinoline-3-carbonitrile]
≥ 1000 | 314 | [2H][C@](Nc1cc(Cl)c2ncc(C#N)c(Nc3cccc4ccccc34)c2c1)(c1ccc(F)cc1)c1cn(C2CC2)nn1 [Example 933, (S)-8-chloro-6-(((1-cyclopropyl-1H-1,2,3-triazol-4-yl)(4-fluorophenyl)methyl-d)amino)-4-(naphthalen-1-ylamino) quinoline-3-carbonitrile]
≥ 1000 | 371 | [2H][C@](Nc1cc(Cl)c2ncc(C#N)c(Nc3cccc(Cl)c3C#N)c2c1)(c1ccc(F)cc1)c1cn(C2CC2)nn1 [Example 934, (S)-8-chloro-4-((3-chloro-2-cyanophenyl)amino)-6-(((1-cyclopropyl-1H-1,2,3-triazol-4-yl)(4-fluorophenyl)methyl-d)amino)quinoline-3-carbonitrile]
≥ 1000 | ≥ 10000 | [2H][C@](Nc1cc(Cl)c2ncc(C#N)c(Nc3cccc(Cl)c3S(C)(=O)=O)c2c1)(c1ccc(F)cc1)c1cn(C2CC2)nn1 [Example 935, (S)-8-chloro-4-((3-chloro-2-(methylsulfonyl)phenyl)amino)-6-(((1-cyclopropyl-1H-1,2,3-triazol-4-yl)(4-fluorophenyl)methyl-d)amino)quinoline-3-carbonitrile]
222 | 12 | [2H][C@](Nc1cc(Cl)c2ncc(C#N)c(NCC(C)(C)C)c2c1)(c1ccc(Cl)cc1)c1cn(C2CC2)nn1 [Example 936, (S)-8-chloro-6-(((4-chlorophenyl)(1-cyclopropyl-1H-1,2,3-triazol-4-yl)methyl-d)amino)-4-(neopentylamino) quinoline-3-carbonitrile]
35 | 3 | [2H][C@](Nc1cc(Br)c2ncc(C#N)c(N[C@H](CCC#N)c3ccccc3)c2c1)(c1ccc(F)cc1)c1cn(C2CC2)nn1 [Example 937, 8-bromo-4-(((R)-3-cyano-1-phenylpropyl)amino)-6-(((S)-(1-cyclopropyl-1H-1,2,3-triazol-4-yl)(4-fluorophenyl)methyl-d)amino)quinoline-3-carbonitrile]
71 | 6 | [2H][C@](Nc1cc(Cl)c2ncc(C#N)c(N[C@H](CCC#N)c3ccccc3)c2c1)(c1ccc(F)cc1)c1cn(C2(C(F)(F)F)CC2)nn1 [Example 938, 8-chloro-4-(((R)-3-cyano-1-phenylpropyl)amino)-6-(((S)-(4-fluorophenyl)(1-(1-(trifluoromethyl)cyclopropyl)-1H-1,2,3-triazol-4-yl)methyl-d)amino)quinoline-3-carbonitrile]
92 | 4 | [2H][C@@](Nc1cc(C(C)=O)c2ncc(C#N)c(N[C@H](CCC#N)c3ccccc3)c2c1)(c1cn(C2CC2)nn1)c1ccccc1Cl [Example 939, 8-acetyl-6-(((S)-(2-chlorophenyl)(1-cyclopropyl-1H-1,2,3-triazol-4-yl)methyl-d)amino)-4-(((R)-3-cyano-1-phenylpropyl)amino) quinoline-3-carbonitrile]
144 | 4 | CC[C@@H](Nc1c(C#N)cnc2c(Br)cc(N[C@@H](c3cccc(-c4ncco4)c3)c3cn(C4CC4)nn3)cc12)c1ccccc1 [Example 940, 8-bromo-6-(((S)-(1-cyclopropyl-1H-1,2,3-triazol-4-yl)(3-(oxazol-2-yl)phenyl)methyl)amino)-4-(((R)-1-phenylpropyl)amino) quinoline-3-carbonitrile]
52 | 1 | CC[C@@H](Nc1c(C#N)cnc2c(C#N)cc(N[C@@H](c3cccc(-c4ncco4)c3)c3cn(C4CC4)nn3)cc12)c1ccccc1 [Example 941, 6-(((S)-(1-cyclopropyl-1H-1,2,3-triazol-4-yl) (3-(oxazol-2-yl)phenyl)methyl)amino)-4-(((R)-1-phenylpropyl)amino) quinoline-3,8-dicarbonitrile]
141 | 1 | CC[C@@H](Nc1c(C#N)cnc2c(C#N)cc(N[C@@H](c3cccc(C(N)=O)c3)c3cn(C4CC4)nn3)cc12)c1ccccc1 [Example 942, 3-((S)-(1-cyclopropyl-1H-1,2,3-triazol-4-yl) ((3,8-dicyano-4-(((R)-1-phenylpropyl)amino)quinolin-6-yl)amino)methyl)benzamide]
93 | 4 | CC[C@@H](Nc1c(C#N)cnc2c(C#N)cc(N[C@@H](c3cccc(C(=O)N4CC(F)(F)C4)c3)c3cn(C4CC4)nn3)cc12)c1ccccc1 [Example 943, 6-(((S)-(1-cyclopropyl-1H-1,2,3-triazol-4-yl)(3-(3,3-difluoroazetidine-1-carbonyl)phenyl)methyl)amino)-4-(((R)-1-phenylpropyl)amino)quinoline-3,8-dicarbonitrile]
51 | 1 | CC[C@@H](Nc1c(C#N)cnc2c(Br)cc(N[C@@H](c3cccc(C(N)=O)c3)c3cn(C4CC4)nn3)cc12)c1ccccc1 [Example 944, 3-((S)-((8-bromo-3-cyano-4-(((R)-1-phenylpropyl)amino)quinolin-6-yl)amino)(1-cyc1opropyl-1H-1,2,3-triazol-4-yl)methyl)benzamide]
29 | 2 | N#CCC[C@@H](Nc1c(C#N)cnc2c(C#N)cc(N[C@H](c3cn(C4CC4)nn3)c3ccccc3Cl)cc12)c1ccccc1 [Example 945, 6-(((S)-(2-chlorophenyl)(1-cyclopropyl-1H-1,2,3-triazol-4-yl)methyl)amino)-4-(((R)-3-cyano-1-phenylpropyl)amino)quinoline-3,8-dicarbonitrile]
≥ 1000 | 745 | [2H][C@](Nc1cc(Cl)c2ncc(C#N)c(Nc3cccc(Cl)c3C(C)=O)c2c1)(c1ccc(F)cc1)c1cn(C2CC2)nn1 [Example 946, (S)-4-((2-acetyl-3-chlorophenyl)amino)-8-chloro-6-(((1-cyclopropyl-1H-1,2,3-triazol-4-yl) (4-fluorophenyl)methyl-d)amino)quinoline-3-carbonitrile]
282 | 14 | [2H][C@](Nc1cc(Cl)c2ncc(C#N)c(Nc3cccc(Cl)c3)c2c1)(c1ccc(F)cc1)c1cn(C2CC2)nn1 [Example 947, (S)-8-chloro-4-((3-chlorophenyl)amino)-6-(((1-cyclopropyl-1H-1,2,3-triazol-4-yl)(4-fluorophenyl)methyl-d)amino)quinoline-3-carbonitrile]
78 | 1 | CC[C@@H](Nc1c(C#N)cnc2c(C#N)cc(N[C@@H](c3cccc(C(=O)NC)c3)c3cn(C4CC4)nn3)cc12)c1ccccc1 [Example 948, 3-((S)-(1-cyclopropyl-1H-1,2,3-triazol-4-yl) ((3,8-dicyano-4-(((R)-1-phenylpropyl)amino)quinolin-6-yl)amino)methyl)-N-methylbenzamide]
